In BindingDB's records for patent US20250368667 (Shanghai Qilu Pharmaceutical Research and Development Centre, 2025):

Molecular target: T1, Ubiquitin carboxyl-terminal hydrolase 1 (Homo sapiens, UniProt O94782)
T1 sequence (O94782 whole entry): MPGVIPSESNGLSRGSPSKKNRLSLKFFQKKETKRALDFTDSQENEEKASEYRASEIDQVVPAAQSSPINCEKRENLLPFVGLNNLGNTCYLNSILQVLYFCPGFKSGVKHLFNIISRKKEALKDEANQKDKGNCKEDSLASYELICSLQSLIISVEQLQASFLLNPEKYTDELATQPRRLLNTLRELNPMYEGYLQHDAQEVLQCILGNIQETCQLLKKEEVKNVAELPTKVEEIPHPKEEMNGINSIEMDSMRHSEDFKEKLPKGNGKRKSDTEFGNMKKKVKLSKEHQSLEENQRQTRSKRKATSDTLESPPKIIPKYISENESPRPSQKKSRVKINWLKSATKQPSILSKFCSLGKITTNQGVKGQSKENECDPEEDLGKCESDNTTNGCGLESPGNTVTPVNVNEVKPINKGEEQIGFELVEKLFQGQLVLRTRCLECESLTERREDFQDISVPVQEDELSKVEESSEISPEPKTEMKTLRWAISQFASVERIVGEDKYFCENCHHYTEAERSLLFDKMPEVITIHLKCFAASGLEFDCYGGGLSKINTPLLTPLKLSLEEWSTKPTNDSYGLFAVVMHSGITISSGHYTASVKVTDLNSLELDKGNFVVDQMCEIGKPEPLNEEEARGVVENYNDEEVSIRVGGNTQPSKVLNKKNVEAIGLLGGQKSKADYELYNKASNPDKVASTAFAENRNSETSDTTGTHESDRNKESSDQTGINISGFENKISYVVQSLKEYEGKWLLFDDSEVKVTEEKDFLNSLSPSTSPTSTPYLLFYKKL
Assay: Experimental Method of USP1 Enzyme Activity
From the text: USPli compounds were screened by USP1 enzyme activity detection experiment.1.1 Experimental materials: recombinant human His6-USP1/His6-UAF1 composite protein.

Question: How did the IC50 turn out when `COc1cnn(C2CC2)c1-c1ncc2c3ccncc3n(Cc3ccc(-c4nc(C(F)(F)F)cn4C)cc3)c2n1` [US20250368667, Compound 103] was run?
Answer: 12.3 nM

Question: Which IC50 does the source give for `COc1ncnc(C2CC2)c1-c1ncc2c3ccc(=O)[nH]c3n(Cc3ccc4c(c3)CCCn3cc(C(F)(F)F)nc3-4)c2n1` [US20250368667, Compound 159] here?
Answer: 16.6 nM

Question: How did the IC50 turn out when `COc1ncnc(C2CC2)c1-c1ncc2c3ccc(C(C)C)nc3n(Cc3ccc4c(c3)CCCn3cc(C(F)(F)F)nc3-4)c2n1` [US20250368667, Compound 105] was run?
Answer: 5.17 nM

Question: With `[2H]C([2H])([2H])Oc1ncnc(C2CC2)c1-c1ncc2c3cn(C)nc3n(Cc3ccc(-c4nc(C(F)(F)F)cn4C(C)C)cc3)c2n1` [US20250368667, Compound 162] as the compound, how does the IC50 read?
Answer: 5.49 nM
